Measurements from patent US6686382B2, “Sulfonamides and derivatives thereof that modulate the activity of endothelin” (Encysive Pharmaceuticals Inc., priority 1999, dated 2004).
Where a name gives a salt, the structure may show the parent alone.

Assays:
human ETA receptors = target: T1, human ETA receptors (Homo sapiens, UniProt P25101); experiment: Endothelin binding inhibition, Binding Test #1: inhibition of binding to ETA receptors (TE 671 cell membranes); settings: relative to N-(4-chloro-3-methyl-5-isoxazolyl)-2-{[3,4-(methylenedioxy)-6-methylphenyl)acetyl]-thiophene-3-sulfonamide (= 1.0)
T1 construct: endogenous in cells; host or cells: TE 671 cells (ATCC HTB 139), membrane preparation
T1 sequence (P25101 21-427): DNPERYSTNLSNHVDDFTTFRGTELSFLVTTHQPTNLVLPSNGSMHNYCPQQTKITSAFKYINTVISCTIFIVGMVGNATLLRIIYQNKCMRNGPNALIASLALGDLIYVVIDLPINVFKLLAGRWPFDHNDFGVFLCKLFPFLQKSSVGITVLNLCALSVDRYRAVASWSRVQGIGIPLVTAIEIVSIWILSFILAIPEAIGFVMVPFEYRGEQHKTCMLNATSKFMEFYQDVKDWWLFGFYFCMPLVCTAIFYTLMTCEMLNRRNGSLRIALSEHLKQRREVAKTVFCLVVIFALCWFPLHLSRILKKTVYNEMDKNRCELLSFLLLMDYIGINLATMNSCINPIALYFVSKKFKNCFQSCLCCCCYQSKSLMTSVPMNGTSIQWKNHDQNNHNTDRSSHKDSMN
Text: Compounds that are potential endothelin antagonists are identified by testing their ability to compete with ^125I-labeled ET-1 for binding to human ETA receptors or ETB receptors present on isolated cell membranes. The effectiveness of the test compound as an antagonist or agonist of the biological tissue response of endothelin can also be assessed by measuring the effect on endothelin induced contraction of isolated rat thoracic aortic rings. The ability of the compounds to act as antagonists or agonists for ETB receptors can be assess by testing the ability of the compounds are to inhibit endothelin-1 induced prostacyclin release from cultured bovine aortic endothelial cells.
A. Endothelin Binding Inhibition—Binding Test #1: Inhibition of Binding to ETA Receptors
TE 671 cells (ATCC Accession No. HTB 139) express ETA receptors. These cells were grown to confluence in T-175 flasks. Cells from multiple flasks were collected by scraping, pooled and centrifugedfor 10 min at 190×g. The cells were resuspended in phosphate buffered saline (PBS) containing 10 mM EDTA using a Tenbroeck homogenizer. The suspension was centrifuged at 4° C. at 57,800×g for 15 min, the pellet was resuspended in 5 ml of buffer A (5 mM HEPES buffer, pH 7.4 containing aprotinin (100 KIU/ml)) and then frozen and thawed once. 5 ml of Buffer B (5 mM HEPES Buffer, pH 7.4 containing 10 mM MnCl2 and 0.001% deoxyribonuclease Type 1) was added, the suspension mixed by inversion and then incubated at 37° C. for 30 minutes. The mixture was centrifuged at 57,800×g as described above, the pellet washed twice with buffer A and then resuspended in buffer C (30 mM HEPES buffer, pH 7.4 containing aprotinin (100 KIU/ml) to give a final protein concentration of 2 mg/ml and stored at −70° C. until use.
The membrane suspension was diluted with binding buffer (30 mM HEPES buffer, pH 7.4 containing 150 mM NaCl, 5 mM MgCl2, 0.5% Bacitracin) to a concentration of 8 μg/50 μl. ^125I-endothelin-1 (3,000 cpm, […]) was added to 50 μL of either: (A) endothelin-1 (for non specific binding) to give a final concentration 80 nM); (B) binding buffer (for total binding); or (C) a test compound (final concentration 1 nM to 100 μM). The membrane suspension (50 μL), containing up to 8 μg of membrane protein, was added to each of (A), (B), or (C). Mixtures were shaken, and incubated at 4° C. for 16-18 hours, and then centrifuged at 4° C. for 25 min at 2,500×g. Alternatively, the incubation was conducted at 24° C. […] This, must be kept in mind when comparing IC50 concentrations among compounds provided herein.
The supernatant, containing unbound radioactivity, was decanted and the pellet counted on a Genesys multiwell gamma counter. The degree of inhibition of binding (D) was calculated according to the following equation: [formula]
Each test was generally performed in triplicate.

Structure (SMILES) | melting point | ETA ACTIVITY (ETA antagonist activity relative to reference compound) (human ETA receptors)
Cc1cc(C)c(NC(=O)c2sccc2S(=O)(=O)Nc2onc(C)c2Cl)c(C(C)O)c1 (stereo not drawn) (as salt: Na) [Compound 18, 3-{[(4-chloro-3-methyl-5-isoxazolyl)amino]sulfonyl}-N-[2-(1-hydroxyethyl)-4,6-dimethylphenyl]-2-thiophene carboxamide] | 147 to 154 °C | 
CC(=O)c1cc2c(cc1NC(=O)c1sccc1S(=O)(=O)Nc1onc(C)c1C)OCO2 [3-{[(3,4-dimethyl-5-isoxazolyl)amino]sulfonyl}-N-(2-acetyl-4,5-methylenedioxyphenyl)-2-thiophenecarboxamide] |  | 0.05
Cc1cc(C)c(CC(=O)c2sccc2S(=O)(=O)Nc2onc(C)c2Cl)c(C)c1 [3-{[(4-chloro-3-methyl-5-isoxazolyl)amino]sulfonyl}-2-(2,4,6-trimethylphenylacetyl)thiophene] |  | 6.4
Cc1cc(C)c(NC(=O)c2sccc2S(=O)(=O)Nc2onc(C)c2Cl)c(C)c1 [3-{[(4-chloro-3-methyl-5-isoxazolyl)amino]sulfonyl}-N-(2,4,6-trimethylphenyl)-2-thiophenecarboxamide] |  | 2.4
CC(=O)c1cc2c(cc1NC(=O)c1sccc1S(=O)(=O)Nc1onc(C)c1Cl)OCO2 [3-{[(4-chloro-3-methyl-5-isoxazolyl)amino]sulfonyl}-N-(2-acetyl-4,5-methylenedioxyphenyl)-2-thiophenecarboxamide] |  | 0.15
Cc1cc(C)c(NC(=O)c2sccc2S(=O)(=O)Nc2onc(C)c2Cl)c(C(N)=O)c1 [3-{[(4-chloro-3-methyl-5-isoxazolyl)amino]sulfonyl}-N-(2-carbamoyl-4,6-dimethylphenyl)-2-thiophenecarboxamide] |  | 1.04
Cc1cc(C)c(NC(=O)c2sccc2S(=O)(=O)Nc2onc(C)c2Cl)c(C(=O)O)c1 [3-{[(4-chloro-3-methyl-5-isoxazolyl)amino]sulfonyl}-N-(2-carboxyl-4,6-dimethylphenyl)-2-thiophenecarboxamide] |  | 0.05
COC(=O)c1c(C)cc(C)c(NC(=O)c2sccc2S(=O)(=O)Nc2onc(C)c2Cl)c1C [3-{[(4-chloro-3-methyl-5-isoxazolyl)amino]sulfonyl}-N-(3-methoxycarbonyl-2,4,6-trimethylphenyl)-2-thiophenecarboxamide] |  | 4.7
Cc1cc(C)c(NC(=O)c2sccc2S(=O)(=O)Nc2onc(C)c2C)c(C#N)c1C [Compound 9, N-(2-cyano-3,4,6-trimethylphenyl)-3-{[(3,4-dimethyl-5-isoxazolyl)amino]sulfonyl}-2-thiophenecarboxamide] |  | 18.6
Cc1cc(C)c(NC(=O)c2sccc2S(=O)(=O)Nc2onc(C)c2Cl)c(C(C)O)c1 (stereo not drawn) [Compound 18, 3-{[(4-chloro-3-methyl-5-isoxazolyl)amino]sulfonyl}-N-[2-(1-hydroxyethyl)-4,6-dimethylphenyl]-2-thiophene carboxamide] |  | 26.4
Cc1cc(C)c(NC(=O)c2sccc2S(=O)(=O)Nc2onc(C)c2Cl)c(C(=O)N(C)C)c1 [Compound 20, 3-{[(4-chloro-3-methyl-5-isoxazolyl)amino]sulfonyl}-N-{2-[(dimethylamino)carbonyl]-4,6-dimethylphenyl)-2-thiophene carboxamide] |  | 14.4
CO/N=C(\C)c1cc(C)cc(C)c1NC(=O)c1sccc1S(=O)(=O)Nc1onc(C)c1Cl [Compound 22, 3-{[(4-chloro-3-methyl-5-isoxazolyl)amino]sulfonyl}-N-{2,4-dimethyl-6-[(methyloxy)ethanimidoyl]phenyl}-2-thiophene carboxamide] | 140 to 145 °C | 23.6
Cc1cc(C)c(OS(=O)(=O)N(C)C)c(C)c1NC(=O)c1sccc1S(=O)(=O)Nc1onc(C)c1Cl [Compound 24, 3-{[(3-{[(4-chloro-3-methyl-5-isoxazolyl)amino]sulfonyl}-2-thiophenyl)carbonyl]amino}-2,4,6-trimethylphenyl-N,N-dimethylsulfamate] | 169 to 174 °C | 
Cc1cc(C)c(OCC2CC2)c(C)c1NC(=O)c1sccc1S(=O)(=O)Nc1onc(C)c1Cl [Compound 26, 3-{[(4-chloro-3-methyl-5-isoxazolyl)amino]sulfonyl}-N-{3-[(cyclopropylmethyl)oxy]-2,4,6-trimethylphenyl}-2-thiophenecarboxamide] | 155 to 158 °C | 9.4
Cc1nc(C)c(NC(=O)c2sccc2S(=O)(=O)Nc2onc(C)c2Cl)c(C)n1 [Compound 28, 3-{[(4-chloro-3-methyl-5-isoxazolyl)amino]sulfonyl}-N-(2,4,6-trimethyl-5-pyrimidinyl)-2-thiophenecarboxamide] | 170 to 175 °C | 2.0
CC(=O)c1c(C)c(C)cc(C)c1NC(=O)c1sccc1S(=O)(=O)Nc1onc(C)c1Cl [Compound 30, N-(2-acetyl-3,4,6-trimethylphenyl)-3-{[(4-chloro-3-methyl-5-isoxazolyl)amino]sulfonyl}-2-thiophenecarboxamide] | 223 to 225 °C | 103.8
Cc1cc(C)c(NC(=O)c2sccc2S(=O)(=O)Nc2onc(C)c2Cl)c(C#N)c1C [Compound 32, 3-{[(4-chloro-3-methyl-5-isoxazolyl)amino]sulfonyl}-N-(2-cyano-3,4,6-trimethylphenyl)-2-thiophenecarboxamide] |  | 55.7
CCCc1c(O)c(C(C)=O)cc(C(C)=O)c1NC(=O)c1sccc1S(=O)(=O)Nc1onc(C)c1Cl [Compound 36] | 163 to 167 °C | 0.1
Cc1cc(C)c(NC(=O)c2sccc2S(=O)(=O)Nc2onc(C)c2Cl)c(C(=O)N(C)CC(C)(C)C)c1 [Compound 40, 3-{[(4-chloro-3-methyl-5-isoxazolyl)amino]sulfonyl}-N-(2,4-dimethyl-6-{[methyl(2,2-dimethylpropyl)amino]carbonyl}phenyl)-2-thiophenecarboxamide] | 174 to 176 °C | 2.7
CCCS(=O)(=O)c1cc(C)cc(C)c1NC(=O)c1sccc1S(=O)(=O)Nc1onc(C)c1Cl [Compound 48, 3-{[(4-chloro-3-methyl-5-isoxazolyl)amino]sulfonyl)-N-[2,4-dimethyl-6-(propylsulfonyl)phenyl]-2-thiophenecarboxamide] | 152 to 155 °C | 
CCc1cc(C)cc(C)c1NC(=O)c1sccc1S(=O)(=O)Nc1onc(C)c1Cl [Compound 50, 3-{[(4-chloro-3-methyl-5-isoxazolyl)amino]sulfonyl}-N-(2-ethyl-4,6-dimethylphenyl)-2-thiophenecarboxamide] | 152 to 154 °C | 3.8
Cc1cc(-c2ncco2)cc(C)c1NC(=O)c1sccc1S(=O)(=O)Nc1onc(C)c1Cl [Compound 52, 3-{[(4-chloro-3-methyl-5-isoxazolyl)amino]sulfonyl}-N-[2,6-dimethyl-4-(1,3-oxazol-2-yl)phenyl]-2-thiophenecarboxamide] | 205 to 207 °C | 1.1
